Reference: patent US11926628B2 (Gilead Sciences, Inc., priority 2021, dated 2024)

Experiments:
[1] = system: Jurkat NFκB-luciferase cells; test: Jurkat NFκB-Luciferase Assay; format: cell-based; conditions: Homo sapiens; Jurkat NFκB-luciferase cells activated with anti-CD3 antibody (OKT3), 2.5 hrs at 37° C.; geometric mean; read-out: DGK NFKb Luciferase EC50
In short: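 Jurkat NFκB-luciferase reporter cells stimulated on plate-bound anti-CD3 (5 ug/ml coating) with compound, 2.5 hrs at 37° C then 30 min at 25° C; luminescence read with One-Glo Ex. Normalized to DMSO (basal) and 1 micromolar compound (maximum) controls; EC50 from four-parameter fit, geometric mean across experiments.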

human DGKα = human DGKα (Homo sapiens (Human), UniProt P23743); test: DGKα Biochemical Activity Assay (ADP-Glo); conditions: recombinant DGKα 1 nM, 100 μM ATP, 18:1 DAG/POPS/octylglucoside micelles, 1 hour at 25° C.; geometric mean; read-out: HTBS DGKa 1X ATP KM IC50
In short: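 Recombinant DGKα (1 nM final) was preincubated with compound for 15 min, then reacted for 1 h at 25 °C with 100 μM ATP and octylglucoside micelles of 0.85 mM 18:1 DAG and 6.75 mM POPS in pH 7.2 MOPS with 5 mM MgCl2. ADP formed was read by ADP-Glo luminescence. IC50 came from four-parameter fits normalized to DMSO and 50 μM CU3, and values were geometric means.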

Sequence of human DGKα (P23743 whole entry): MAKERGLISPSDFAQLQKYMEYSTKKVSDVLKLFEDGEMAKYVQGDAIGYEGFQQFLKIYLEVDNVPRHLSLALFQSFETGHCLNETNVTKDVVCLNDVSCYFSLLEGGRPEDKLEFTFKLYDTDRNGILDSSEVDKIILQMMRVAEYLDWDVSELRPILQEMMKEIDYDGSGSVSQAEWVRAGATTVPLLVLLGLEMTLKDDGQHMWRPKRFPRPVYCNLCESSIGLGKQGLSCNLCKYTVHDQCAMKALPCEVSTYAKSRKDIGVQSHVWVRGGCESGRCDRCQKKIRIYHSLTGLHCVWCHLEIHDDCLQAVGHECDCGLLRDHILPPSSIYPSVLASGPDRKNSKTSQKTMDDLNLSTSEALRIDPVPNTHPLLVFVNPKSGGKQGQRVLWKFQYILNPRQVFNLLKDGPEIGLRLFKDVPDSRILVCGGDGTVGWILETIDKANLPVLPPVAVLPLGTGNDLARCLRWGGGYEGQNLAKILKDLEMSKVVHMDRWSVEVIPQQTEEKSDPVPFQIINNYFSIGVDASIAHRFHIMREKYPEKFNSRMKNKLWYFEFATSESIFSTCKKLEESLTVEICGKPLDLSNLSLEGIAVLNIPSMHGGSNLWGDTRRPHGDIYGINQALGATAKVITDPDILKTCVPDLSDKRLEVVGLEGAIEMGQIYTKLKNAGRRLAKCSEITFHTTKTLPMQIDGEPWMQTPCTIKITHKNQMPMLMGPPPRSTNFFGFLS

`CN(c1cccc(-c2ccc(N3CCCS3(=O)=O)cc2)c1)c1nc2nncn2c2cnccc12` [Example 59, N-[3-[4-(1,1-dioxo-1,2-thiazolidin-2-yl)phenyl]phenyl]-N-methyl-2,4,5,7,12-pentazatricyclo[7.4.0.02,6]trideca-1(13),3,5,7,9,11-hexaen-8-amine] showed an EC50 [1] of 121 nM and an IC50 (human DGKα) of 45.2 nM.

`CN(c1cccc(-c2ccc(C3CC3)cc2)c1)c1nc2nncn2c2cnccc12` [Example 61, N-[3-(4-cyclopropylphenyl)phenyl]-N-methyl-2,4,5,7,12-pentazatricyclo[7.4.0.02,6]trideca-1(13),3,5,7,9,11-hexaen-8-amine] showed an EC50 [1] of 0.543 nM and an IC50 (human DGKα) of 22.8 nM.

In the case of `CN(c1cccc(-c2ccc(C3CC3)nc2)c1)c1nc2nncn2c2cnccc12` [Example 62, N-[3-(6-cyclopropyl-3-pyridyl)phenyl]-N-methyl-2,4,5,7,12-pentazatricyclo[7.4.0.02,6]trideca-1(13),3,5,7,9,11-hexaen-8-amine], the EC50 [1] is reported as 27.7 nM and the IC50 (human DGKα) is reported as 159 nM.

With `Cc1nnc2nc(N3CCCCc4c(C#CC(C)(C)C(C)(F)F)cccc43)c3c(F)cncc3n12` [Example 63, 5-(6-(4,4-difluoro-3,3-dimethylpent-1-yn-1-yl)-2,3,4,5-tetrahydro-1H-benzo[b]azepin-1-yl)-6-fluoro-1-methylpyrido[4,3-e][1,2,4]triazolo[4,3-a]pyrimidine] the EC50 [1] was 1.09 nM and the IC50 (human DGKα) was 11.6 nM.

Compound `Cc1nnc2nc(N3CCCCc4c(C#CC5(C(C)(F)F)CC5)cccc43)c3c(F)cncc3n12` [Example 65, 5-(6-((1-(1,1-difluoroethyl)cyclopropyl)ethynyl)-2,3,4,5-tetrahydro-1H-benzo[b]azepin-1-yl)-6-fluoro-1-methylpyrido[4,3-e][1,2,4]triazolo[4,3-a]pyrimidine] has an EC50 [1] of 0.337 nM and an IC50 (human DGKα) of 22.7 nM.

`Cc1nnc2nc(N3CCCCc4c(C#CC(C)(C)O)cccc43)c3c(F)cncc3n12` [Example 66, 4-(1-(6-fluoro-1-methylpyrido[4,3-e][1,2,4]triazolo[4,3-a]pyrimidin-5-yl)-2,3,4,5-tetrahydro-1H-benzo[b]azepin-6-yl)-2-methylbut-3-yn-2-ol] gave an EC50 [1] of 15.9 nM and an IC50 (human DGKα) of 6.14 nM.

Work on `Cc1nnc2nc(N3CCCCc4c(C#CC5(C(F)F)CC5)cccc43)c3c(F)cncc3n12` [Example 67, 5-(6-((1-(difluoromethyl)cyclopropyl)ethynyl)-2,3,4,5-tetrahydro-1H-benzo[b]azepin-1-yl)-6-fluoro-1-methylpyrido[4,3-e][1,2,4]triazolo[4,3-a]pyrimidine] yielded an EC50 [1] of 1.24 nM and an IC50 (human DGKα) of 3.96 nM.

In the case of `Cc1nnc2nc(N3CCCCc4c(C#CC5CC5)cccc43)c3c(F)cncc3n12` [Example 68, 5-(6-(cyclopropylethynyl)-2,3,4,5-tetrahydro-1H-benzo[b]azepin-1-yl)-6-fluoro-1-methylpyrido[4,3-e][1,2,4]triazolo[4,3-a]pyrimidine], the EC50 [1] is reported as 1.19 nM and the IC50 (human DGKα) is reported as 7.67 nM.

Compound `Cc1nnc2nc(N3CCCCc4c(Br)cccc43)c3c(F)cncc3n12` [Example 69, 5-(6-bromo-2,3,4,5-tetrahydro-1H-benzo[b]azepin-1-yl)-6-fluoro-1-methylpyrido[4,3-e][1,2,4]triazolo[4,3-a]pyrimidine] has an EC50 [1] of 13.9 nM and an IC50 (human DGKα) of 220 nM.

For `Cc1nnc2nc(N3CCCOc4c(C#CC(C)(C)C(F)(F)F)cccc43)c3c(F)cncc3n12` [Example 70, 5-(6-fluoro-1-methylpyrido[4,3-e][1,2,4]triazolo[4,3-a]pyrimidin-5-yl)-9-(4,4,4-trifluoro-3,3-dimethylbut-1-yn-1-yl)-2,3,4,5-tetrahydrobenzo[b][1,4]oxazepine], the EC50 [1] was 2.62 nM and the IC50 (human DGKα) was 6.44 nM.

With `Cc1nnc2nc(N3CCCOc4c(C#CC(C)(C)O)cccc43)c3c(F)cncc3n12` [Example 71, 4-(5-(6-fluoro-1-methylpyrido[4,3-e][1,2,4]triazolo[4,3-a]pyrimidin-5-yl)-2,3,4,5-tetrahydrobenzo[b][1,4]oxazepin-9-yl)-2-methylbut-3-yn-2-ol] the EC50 [1] was 304 nM and the IC50 (human DGKα) was 18.5 nM.

`Cc1nnc2nc(N3CCCOc4c(C#CC5(C(F)(F)F)CC5)cccc43)c3c(F)cncc3n12` [Example 72, 5-(6-fluoro-1-methylpyrido[4,3-e][1,2,4]triazolo[4,3-a]pyrimidin-5-yl)-9-((1-(trifluoromethyl)cyclopropyl)ethynyl)-2,3,4,5-tetrahydrobenzo[b][1,4]oxazepine] showed an EC50 [1] of 3.03 nM and an IC50 (human DGKα) of 7.4 nM.

`Cc1nnc2nc(N3CCCOc4c(C#CC5(C)CC5)cccc43)c3c(F)cncc3n12` [Example 73, 5-(6-fluoro-1-methylpyrido[4,3-e][1,2,4]triazolo[4,3-a]pyrimidin-5-yl)-9-((1-methylcyclopropyl)ethynyl)-2,3,4,5-tetrahydrobenzo[b][1,4]oxazepine] was tested, and the EC50 [1] was 3.45 nM and the IC50 (human DGKα) was 4.17 nM.

Compound `Cc1nnc2nc(N3CCCOc4c(C#CC5CC5)cccc43)c3c(F)cncc3n12` [Example 74, 9-(cyclopropylethynyl)-5-(6-fluoro-1-methylpyrido[4,3-e][1,2,4]triazolo[4,3-a]pyrimidin-5-yl)-2,3,4,5-tetrahydrobenzo[b][1,4]oxazepine] has an EC50 [1] of 3.27 nM and an IC50 (human DGKα) of 2.29 nM.

`Cc1nnc2nc(N3CCCOc4c(Br)cccc43)c3c(F)cncc3n12` [Example 75, 9-bromo-5-(6-fluoro-1-methylpyrido[4,3-e][1,2,4]triazolo[4,3-a]pyrimidin-5-yl)-2,3,4,5-tetrahydrobenzo[b][1,4]oxazepine] gave an EC50 [1] of 48.2 nM and an IC50 (human DGKα) of 357 nM.

Work on `Cc1nnc2nc(N3CCOCc4c(C#CC(C)(C)C(F)(F)F)cccc43)c3c(F)cncc3n12` [Example 76, 1-(6-fluoro-1-methylpyrido[4,3-e][1,2,4]triazolo[4,3-a]pyrimidin-5-yl)-6-(4,4,4-trifluoro-3,3-dimethylbut-1-yn-1-yl)-1,2,3,5-tetrahydrobenzo[e][1,4]oxazepine] yielded an EC50 [1] of 1.41 nM and an IC50 (human DGKα) of 6.09 nM.

In the case of `Cc1nnc2nc(N3CCOCc4c(C#CC(C)(C)O)cccc43)c3c(F)cncc3n12` [Example 77, 4-(1-(6-fluoro-1-methylpyrido[4,3-e][1,2,4]triazolo[4,3-a]pyrimidin-5-yl)-1,2,3,5-tetrahydrobenzo[e][1,4]oxazepin-6-yl)-2-methylbut-3-yn-2-ol], the EC50 [1] is reported as 130 nM and the IC50 (human DGKα) is reported as 12.6 nM.

Work on `Cc1nnc2nc(N3CCOCc4c(C#CC5(C(F)(F)F)CC5)cccc43)c3c(F)cncc3n12` [Example 78, 1-(6-fluoro-1-methylpyrido[4,3-e][1,2,4]triazolo[4,3-a]pyrimidin-5-yl)-6-((1-(trifluoromethyl)cyclopropyl)ethynyl)-1,2,3,5-tetrahydrobenzo[e][1,4]oxazepine] yielded an EC50 [1] of 1.95 nM and an IC50 (human DGKα) of 4.34 nM.

In the case of `Cc1nnc2nc(N3CCOCc4c(C#CC5(C)CC5)cccc43)c3c(F)cncc3n12` [Example 79, 1-(6-fluoro-1-methylpyrido[4,3-e][1,2,4]triazolo[4,3-a]pyrimidin-5-yl)-6-((1-methylcyclopropyl)ethynyl)-1,2,3,5-tetrahydrobenzo[e][1,4]oxazepine], the EC50 [1] is reported as 2 nM and the IC50 (human DGKα) is reported as 2.28 nM.

`Cc1nnc2nc(N3CCOCc4c(C#CC5CC5)cccc43)c3c(F)cncc3n12` [Example 80, 6-(cyclopropylethynyl)-1-(6-fluoro-1-methylpyrido[4,3-e][1,2,4]triazolo[4,3-a]pyrimidin-5-yl)-1,2,3,5-tetrahydrobenzo[e][1,4]oxazepine] showed an EC50 [1] of 4.78 nM and an IC50 (human DGKα) of 1.68 nM.

`Cc1nnc2nc(N3CCOCc4c(Br)cccc43)c3c(F)cncc3n12` [Example 81, 6-bromo-1-(6-fluoro-1-methylpyrido[4,3-e][1,2,4]triazolo[4,3-a]pyrimidin-5-yl)-1,2,3,5-tetrahydrobenzo[e][1,4]oxazepine] showed an EC50 [1] of 46.7 nM and an IC50 (human DGKα) of 151 nM.

For `CC1(C#Cc2cccc3c2CCCN3c2nc3nncn3c3cnccc23)CC1` [Example 82], the EC50 [1] was 1.3 nM and the IC50 (human DGKα) was 10.3 nM.

`FC(F)(F)C1(C#Cc2cccc3c2CCCN3c2nc3nncn3c3cnccc23)CC1` [Example 83, 8-[5-[2-[1-(trifluoromethyl)cyclopropyl]ethynyl]-3,4-dihydro-2H-quinolin-1-yl]-2,4,5,7,12-pentazatricyclo[7.4.0.02,6]trideca-1(13),3,5,7,9,11-hexaene] was tested, and the EC50 [1] was 1.76 nM and the IC50 (human DGKα) was 14.2 nM.

Work on `CC(C)(C#Cc1cccc2c1CCCN2c1nc2nncn2c2cncc(F)c12)C(F)(F)F` [Example 84, 10-fluoro-8-[5-(4,4,4-trifluoro-3,3-dimethyl-but-1-ynyl)-3,4-dihydro-2H-quinolin-1-yl]-2,4,5,7,12-pentazatricyclo[7.4.0.02,6]trideca-1(13),3,5,7,9,11-hexaene] yielded an EC50 [1] of 1.19 nM and an IC50 (human DGKα) of 10.7 nM.

Compound `CC(C)(O)C#Cc1cccc2c1CCCN2c1nc2nncn2c2cncc(F)c12` [Example 85, 4-[1-(10-fluoro-2,4,5,7,12-pentazatricyclo[7.4.0.02,6]trideca-1(13),3,5,7,9,11-hexaen-8-yl)-3,4-dihydro-2H-quinolin-5-yl]-2-methyl-but-3-yn-2-ol] has an EC50 [1] of 12.7 nM and an IC50 (human DGKα) of 13.4 nM.

`CC1(C#Cc2cccc3c2CCCN3c2nc3nncn3c3cncc(F)c23)CC1` [Example 86, 10-fluoro-8-[5-[2-(1-methylcyclopropyl)ethynyl]-3,4-dihydro-2H-quinolin-1-yl]-2,4,5,7,12-pentazatricyclo[7.4.0.02,6]trideca-1(13),3,5,7,9,11-hexaene] showed an EC50 [1] of 0.518 nM and an IC50 (human DGKα) of 3.39 nM.
